Laboratory results as given in PMC6503537, “Synthesis of HDAC Substrate Peptidomimetic Inhibitors Using Fmoc Amino Acids Incorporating Zinc-Binding Groups” (Organic Letters, 2019).
Starred links: 1 amine or outer side, 2 acyl side, 3 side chain; linkers in the order of their positions; H or OH if unused. Non-standard residues stand in square brackets, D forms with d. Residues, ends and D or L forms follow the SMILES beside them. *: point of attachment. X1 = CCC(=O)CCCCC[C@H](N[*:1])C(=O)[*:2]; Asu = N[C@@H](CCCCCC(=O)O)C(=O)O; NHOH = ON*

Legend:
[1] = tested on: various HDACs; design: method as in PMID 25738536; conditions: FDA approved HDAC inhibitors; cited from earlier work
[2] = target: HDAC1-MTA1-RBBP4 (Homo sapiens, UniProt Q09028+Q13330+Q13547); experiment: Fluorescence-based HDAC inhibition assay (BOC-Lys-AMC substrate); format: biochemical; conditions: 50 nM HDAC1-MTA1-RBBP4, 30 min at 37 °C
HDAC1-MTA1-RBBP4, sequence (Q13547 whole entry): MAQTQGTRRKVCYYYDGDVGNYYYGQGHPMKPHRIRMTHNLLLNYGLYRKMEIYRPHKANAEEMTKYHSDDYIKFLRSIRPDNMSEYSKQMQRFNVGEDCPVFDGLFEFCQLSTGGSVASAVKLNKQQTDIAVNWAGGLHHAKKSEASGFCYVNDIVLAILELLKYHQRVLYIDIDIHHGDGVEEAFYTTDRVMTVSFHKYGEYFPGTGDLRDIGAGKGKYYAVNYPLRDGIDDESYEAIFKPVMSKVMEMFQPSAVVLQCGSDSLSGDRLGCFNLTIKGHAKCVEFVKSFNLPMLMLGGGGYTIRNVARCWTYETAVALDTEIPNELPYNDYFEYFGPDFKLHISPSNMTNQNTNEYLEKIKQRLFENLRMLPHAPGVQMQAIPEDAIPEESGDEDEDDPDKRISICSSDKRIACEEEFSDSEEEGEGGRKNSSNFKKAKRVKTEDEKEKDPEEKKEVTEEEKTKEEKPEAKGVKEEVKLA
HDAC1-MTA1-RBBP4, sequence (Q13330 whole entry partner): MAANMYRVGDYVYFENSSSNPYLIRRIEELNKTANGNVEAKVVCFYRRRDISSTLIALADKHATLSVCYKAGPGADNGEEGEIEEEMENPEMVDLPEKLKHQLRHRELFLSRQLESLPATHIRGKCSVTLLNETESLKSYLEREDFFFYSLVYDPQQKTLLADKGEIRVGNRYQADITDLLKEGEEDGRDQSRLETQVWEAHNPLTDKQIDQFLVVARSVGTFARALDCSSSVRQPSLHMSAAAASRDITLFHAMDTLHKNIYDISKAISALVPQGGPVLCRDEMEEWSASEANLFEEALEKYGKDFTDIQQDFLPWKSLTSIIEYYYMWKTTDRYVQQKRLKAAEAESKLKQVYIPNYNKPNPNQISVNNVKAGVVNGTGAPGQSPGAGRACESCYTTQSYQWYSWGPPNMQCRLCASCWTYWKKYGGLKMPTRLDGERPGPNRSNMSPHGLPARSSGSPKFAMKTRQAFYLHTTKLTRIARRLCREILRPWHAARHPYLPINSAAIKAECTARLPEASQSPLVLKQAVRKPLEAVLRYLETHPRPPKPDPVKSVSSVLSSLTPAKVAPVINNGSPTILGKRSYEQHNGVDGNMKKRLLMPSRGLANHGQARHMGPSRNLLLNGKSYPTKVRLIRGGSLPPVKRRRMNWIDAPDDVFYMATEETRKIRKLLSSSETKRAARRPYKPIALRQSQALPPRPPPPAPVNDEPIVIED
HDAC1-MTA1-RBBP4, sequence (Q09028 whole entry partner): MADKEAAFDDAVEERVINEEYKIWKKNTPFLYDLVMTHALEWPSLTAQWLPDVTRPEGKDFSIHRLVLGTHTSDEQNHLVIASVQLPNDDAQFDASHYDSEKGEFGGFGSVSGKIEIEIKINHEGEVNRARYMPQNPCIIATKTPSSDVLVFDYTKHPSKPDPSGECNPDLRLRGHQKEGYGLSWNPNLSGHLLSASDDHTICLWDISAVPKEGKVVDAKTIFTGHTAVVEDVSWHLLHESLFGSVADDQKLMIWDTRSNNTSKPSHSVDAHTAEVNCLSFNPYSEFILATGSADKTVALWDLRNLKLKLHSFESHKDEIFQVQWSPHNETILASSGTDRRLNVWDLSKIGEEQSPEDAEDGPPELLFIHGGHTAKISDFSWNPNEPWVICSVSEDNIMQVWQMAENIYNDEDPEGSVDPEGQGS
Method: SPIs 11–14 were assessed in a fluorescence-based inhibition assay to determine potency as HDAC inhibitors (Table 2). […] The lower activity of SPIs 12–13 can be attributed to the lower zinc binding affinity of ketones. In the future these amino acids will be incorporated in various histone tails to generate a library to identify important binding interactions through additional crystal structure studies. The cell permeability of these peptides will also be investigated to determine their usefulness as cellular probes.
HDAC activity was measured by using fluorescent BOC-Lys-AMC substrate in a black 96-well format. 50 nM HDAC1-MTA1-RBBP4 was incubated with inhibitor and 100 µM BOC-Lys-AMC substrate for 30 min at 37 °C in a final volume of 50 µl (50 mM Tris pH 7.5, 150 mM NaCl, 5% Glycerol). The assay was developed by the addition of 50 µl of developer solution (2 µM TSA, 10 mg ml -1 Trypsin, 50 mM Tris pH 7.5, 100 mM NaCl). Fluorescence was measured at 335/460 nm using a Victor X5 plate reader (Perkin Elmer). All measurements were performed in triplicate and data analysed using GraphPad Prism (version 7.0, GraphPad Software, Inc). In the case of titrations IC50 values were calculated by nonlinear curve fitting with a one-site binding (hyperbola) model (Y=Bmax*X/(Kd+X).
Sequence Yield Purity IC50 Retention time Peptide content
(1 picture or pasted object on this page, not shown here)

[3] = tested on: class I HDAC; conditions: cited from earlier work
Description: These inhibitors function by coordinating with the HDAC active site zinc through a side chain that has zinc binding properties such as a hydroxamic acid or ethyl ketone.

O=C(/C=C/c1cccc(S(=O)(=O)Nc2ccccc2)c1)NO [Belinostat]
HDAC specificity, result in words [1]: nonspecific across various HDACs

Cc1[nH]c2ccccc2c1CCNCc1ccc(/C=C/C(=O)NO)cc1 [Panobinostat]
HDAC specificity, result in words [1]: nonspecific across various HDACs

CC(=O)N[C@@H](CCCCN)C(=O)N[C@@H](C)C(=O)N[C@@H](C)C(=O)N[C@@H](CCCNC(=N)N)C(=O)N[C@@H](CCCCCC(=O)NO)C(=O)N[C@@H](CO)C(=O)N[C@@H](C)C(N)=O [SPI 11] (Ac-KAAR[Asu](NHOH)SA-NH2)
HDAC inhibition, result in words ([2]; BOC-Lys-AMC substrate, pH 7.5, tested concentration not given): comparable to our previously reported SPI based on the H4 peptide sequence

CCC(=O)CCCCC[C@H](NC(=O)[C@H](CCCNC(=N)N)NC(=O)[C@H](C)NC(=O)[C@H](C)NC(=O)[C@H](CCCCN)NC(C)=O)C(=O)N[C@@H](CO)C(=O)N[C@@H](C)C(N)=O [SPI 12] (Ac-KAAR[X1]SA-NH2)
IC50 ([2]; 100 M BOC-Lys-AMC substrate (so in the source), 50 mM Tris pH 7.5, 150 mM NaCl, 5% Glycerol, developer TSA/Trypsin, fluorescence 335/460 nm, triplicate, one-site binding fit, unit printed µM in SI): 17 µM

O=C(CCCCCCC(=O)Nc1ccccc1)NO [Vorinostat]
HDAC specificity, result in words [1]: nonspecific across various HDACs

Apicidin A
HDAC inhibition, result in words [3]: class I selective HDAC inhibition in the nanomolar range

Romidepsin
HDAC specificity, result in words [1]: nonspecific across various HDACs
